Assays:
[1] = biological target: T1, 17-beta-hydroxysteroid dehydrogenase type 1 (Homo sapiens, UniProt P14061); test: (§1) Inhibition of 17-beta HSD1 in T47D cells; assay type: functional, cell-based
T1 sequence (P14061 whole entry): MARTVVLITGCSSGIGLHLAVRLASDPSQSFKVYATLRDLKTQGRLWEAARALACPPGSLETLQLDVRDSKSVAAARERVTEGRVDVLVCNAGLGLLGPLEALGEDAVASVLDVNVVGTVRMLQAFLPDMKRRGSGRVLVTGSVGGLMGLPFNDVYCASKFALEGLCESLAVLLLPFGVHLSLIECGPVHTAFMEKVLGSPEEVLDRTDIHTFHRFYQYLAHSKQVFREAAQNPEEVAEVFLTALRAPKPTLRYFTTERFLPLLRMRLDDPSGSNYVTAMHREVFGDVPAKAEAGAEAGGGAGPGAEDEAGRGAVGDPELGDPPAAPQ

[2] = biological target: T2, 17-beta-hydroxysteroid dehydrogenase type 1 (Homo sapiens) (UniProt P14061); test: as §1; assay type: functional, cell-based
T2 sequence (whole entry): T1 sequence (P14061 whole entry)

Row | SMILES | IC50 [1] [nM] | IC50 [2] [nM]
1 | C[C@]12CC[C@@H]3c4ccc(O)cc4CC[C@H]3[C@@H]1CC(CC(=O)NCC1CCCO1)C2=O (stereo not given in full) | 380 | –
2 | CC(NC(=O)C1C[C@H]2[C@@H]3CCc4cc(O)ccc4[C@H]3CC[C@]2(C)[C@H]1O)c1ccccc1 (stereo not given in full) | 810 | –
3 | C[C@]12CC[C@@H]3c4ccc(O)cc4C(=O)C[C@H]3[C@@H]1CCC2=O | 340 | –
4 | CNC(=O)CC1C[C@H]2[C@@H]3CCc4cc(O)ccc4[C@H]3CC[C@]2(C)C1=O (stereo not given in full) | 1500 | –
5 | C[C@]12CC[C@@H]3c4ccc(O)cc4/C(=N\O)C[C@H]3[C@@H]1CC/C2=N\O | 1900 | –
6 | C[C@]12CC[C@@H]3c4ccc(O)cc4CC[C@H]3[C@@H]1C/C(=C\c1ccncc1)[C@@H]2O | 4100 | –
7 | CCOC(=O)CC1C[C@H]2[C@@H]3CCc4cc(O)ccc4[C@H]3CC[C@]2(C)C1=O (stereo not given in full) | 300 | –
8 | CCOC[C@H]1C[C@H]2[C@@H]3CCc4cc(O)ccc4[C@H]3CC[C@]2(C)C1=O | 320 | –
9 | C[C@]12CCC3c4ccc(O)cc4C(=O)CC3C1CC(C=O)=C2O (stereo not given in full) | – | 700
10 | C[C@]12CC[C@@H]3c4ccc(O)cc4CC[C@H]3[C@@H]1CC(C(=O)NCc1cccnc1)[C@@H]2O (stereo not given in full) | 510 | –
